Results as given in publication PMC8068264 (2021).

Experiments:
[1] = test system: SA3-6A/B (DNA, aptamer) TGCGGAGGAAGGTTCGACCATCGTGCGGGTAGGTAGACC/GAACCTGGGGGAGTAGGTCTACCTACCCGCACGATGGTC; experiment: UV melting, first-peak height; conditions: 150 mM NaCl, 5 mM MgCl2; 10 mM HEPES pH 7.4; 100 µM guanosine negative control; signal close to that of 5 µM adenosine
[2] = test system: SA5-5A/B (DNA, aptamer) CCTGCGGAGGAAGGTTGACCATCGTGCGGGTAGGTAGA/AACCTGGGGGAGTAGGTCTACCTACCCGCACGATGGTC; experiment: UV melting at 260 nm; conditions: 150 mM NaCl, 5 mM MgCl2; 10 mM HEPES pH 7.4; 100 µM adenosine; 0.9 µM strands; first (aptachain) peak
[3] = test system: SA3-6A/B (DNA, aptamer) TGCGGAGGAAGGTTCGACCATCGTGCGGGTAGGTAGACC/GAACCTGGGGGAGTAGGTCTACCTACCCGCACGATGGTC; experiment: UV melting first-peak height, Langmuir fit; conditions: 150 mM NaCl, 5 mM MgCl2; 10 mM HEPES pH 7.4; 0.9 µM strands; peak normalized to dimer peak; apparent; per site
[4] = test system: SA5-8A/B (DNA, aptamer) CCTGCGGAGGAAGGTTCTCGACCATCGTGCGGGTAGGTAGA/GAGAACCTGGGGGAGTAGGTCTACCTACCCGCACGATGGTC; experiment: UV melting at 260 nm; conditions: 150 mM NaCl, 5 mM MgCl2; 10 mM HEPES pH 7.4; 100 µM adenosine; 0.9 µM strands; first (aptachain) peak
[5] = test system: SA3-5A/B (DNA, aptamer) TGCGGAGGAAGGTTGAGGACCATCGTGCGGGTAGGTAGACC/GAGAACCTGGGGGAGTAGGTCTACCTACCCGCACGATGGTC; experiment: UV melting at 260 nm; conditions: 150 mM NaCl, 5 mM MgCl2; 10 mM HEPES pH 7.4; 100 µM adenosine; peak at 28 °C only with adenosine, absent without
[6] = test system: Apta6 (DNA, aptamer) GAACCTGGGGGAGTATTGCGGAGGAAGGTTC; experiment: UV melting at 260 nm; conditions: 150 mM NaCl, 5 mM MgCl2; 10 mM HEPES pH 7.4; 100 µM adenosine; 0.9 µM strand; single hairpin peak
[7] = test system: SA5-6A/B (DNA, aptamer) CCTGCGGAGGAAGGTTCGACCATCGTGCGGGTAGGTAGA/GAACCTGGGGGAGTAGGTCTACCTACCCGCACGATGGTC; experiment: UV melting at 260 nm; conditions: 150 mM NaCl, 5 mM MgCl2; 10 mM HEPES pH 7.4; 100 µM adenosine; 0.9 µM strands; first (aptachain) peak
[8] = test system: SA3-6A/B (DNA, aptamer) TGCGGAGGAAGGTTCGACCATCGTGCGGGTAGGTAGACC/GAACCTGGGGGAGTAGGTCTACCTACCCGCACGATGGTC; experiment: UV melting at 260 nm; conditions: 150 mM NaCl, 5 mM MgCl2; 10 mM HEPES pH 7.4; 100 µM adenosine; 0.9 µM strands; first (aptachain) peak

Row | binding [1] | ΔTm [2] [°C] | KD [3] [µM] | ΔTm [4] [°C] | binding [5] | ΔTm [6] [°C] | ΔTm [7] [°C] | ΔTm [8] [°C] | SMILES
1 | weak |  |  |  |  |  |  |  | Nc1nc2c(ncn2[C@@H]2O[C@H](CO)[C@@H](O)[C@H]2O)c(=O)[nH]1
2 |  | 2.5 | 19 ± 2 | 2 | yes | < 1 | 2.5 | 5.5 | Nc1ncnc2c1ncn2[C@@H]1O[C@H](CO)[C@@H](O)[C@H]1O
